Source: US20090092740A1, “METHOD FOR INCREASING LONG-TERM STORAGE OF CUT FLOWERS” (GREENOY LTD., priority 2006, published 2009)

Tested on: cut Rose Flowers (Akito and Red One varieties)
Details: several ppm in acrylic emulsion (tested 0.8 to 11.2 ppm); stored at 2° C. for one month; FIG. 1
Experimental: The flowers were dipped in several emulsions that included several concentration of STS (diluted from 8 g/l by taking from 0.1 to 1.4 ml per liter), ranging from 0.8 to 11.2 ppm. A bunch of roses, flowers and leaves, was dipped in the solution at each concentration for 2 seconds three times. Each treatment included 10 flowers. After the dip process, the flowers were put on a net for 10 minutes, so that an excess solution could drain off. The flowers were kept in an impregnation box at 2° C. for one month, and then they were allocated in vases for quality and shelf life assessments. The quality and appearance of the flowers were checked every day (FIG. 1).

## silver thiosulfate
  quality of the stored roses: improves the quality of the stored roses
